As a reminder, the EC50 is the midpoint of the concentration-response curve.

The target of the experiment is T1, Proteinase-activated receptor 2 (Homo sapiens, UniProt P55085).
T1 sequence (P55085 whole entry): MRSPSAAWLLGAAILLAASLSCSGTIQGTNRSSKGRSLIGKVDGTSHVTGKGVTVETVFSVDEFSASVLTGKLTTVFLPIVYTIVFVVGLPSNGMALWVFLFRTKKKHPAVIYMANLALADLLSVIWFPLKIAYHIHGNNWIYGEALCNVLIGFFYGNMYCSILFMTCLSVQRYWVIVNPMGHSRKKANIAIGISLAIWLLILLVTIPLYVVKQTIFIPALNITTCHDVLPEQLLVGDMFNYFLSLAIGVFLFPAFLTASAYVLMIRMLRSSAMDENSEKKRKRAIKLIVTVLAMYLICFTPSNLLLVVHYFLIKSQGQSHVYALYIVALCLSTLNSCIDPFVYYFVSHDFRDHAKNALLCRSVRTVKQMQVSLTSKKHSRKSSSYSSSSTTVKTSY
Put plainly: Agonist activity at PAR2 receptor in human HT-29 cells assessed as induction of intracellular calcium release.

Consider `CC[C@H](C)[C@H](NC(=O)[C@H](CC1CCCCC1)NC(=O)c1ccno1)C(=O)Nc1ccc(CC(=O)N2CCC(CN)CC2)cc1` [5-Isoxazoyl-Cha-Ile-4-aminophenyl-(4-[aminomethyl]piperidin-1-yl)ethan-2-one], for which the EC50 worked out at 316 nM.

The values are drawn from BindingDB's records for doi:10.1021/jm100984y (The University of Queensland, 2010).
